The source made the active and inactive calls.
What was measured:
Cytochrome P450 2D6 = Cytochrome P450 2D6 (Homo sapiens, UniProt P10635); experiment: qHTS Assay for Inhibitors and Substrates of Cytochrome P450 2D6. [Related pubchem assays: 410 ]; format: ADME; details: read-out: Potency
[1] = A Cell Based Assay for the Identification of Probe candidate Compounds with Anti- Venezuelan Equine Encephalitis virus. [Related pubchem assays: 2409, 2419, 1621, 2238, 2405, 2024, 2065, 2402, 2414, 1635, 1650, 2244 ]; format: functional
[2] = HIV-1 Env-mediated cell fusion inhibitors, dose response, CCR5-tropic Env (AID 2279); format: functional
[3] = test system: Streptococcus sp. 'group A'; experiment: growth inhibition of control SK(-) GAS strain, dose response, counter-screen for streptokinase expression inhibitor project, luminescence, kanamycin, BacTiterGlo, confirmation (AID 1900); format: functional, organism-based
[4] = molecular target: T1, Voltage-gated N-type calcium channel alpha-1B subunit/Amyloid beta A4 precursor protein-binding family A member 1 (Homo sapiens, UniProt Q00975+Q02410); format: protein assay
T1 sequence (Q00975 whole entry): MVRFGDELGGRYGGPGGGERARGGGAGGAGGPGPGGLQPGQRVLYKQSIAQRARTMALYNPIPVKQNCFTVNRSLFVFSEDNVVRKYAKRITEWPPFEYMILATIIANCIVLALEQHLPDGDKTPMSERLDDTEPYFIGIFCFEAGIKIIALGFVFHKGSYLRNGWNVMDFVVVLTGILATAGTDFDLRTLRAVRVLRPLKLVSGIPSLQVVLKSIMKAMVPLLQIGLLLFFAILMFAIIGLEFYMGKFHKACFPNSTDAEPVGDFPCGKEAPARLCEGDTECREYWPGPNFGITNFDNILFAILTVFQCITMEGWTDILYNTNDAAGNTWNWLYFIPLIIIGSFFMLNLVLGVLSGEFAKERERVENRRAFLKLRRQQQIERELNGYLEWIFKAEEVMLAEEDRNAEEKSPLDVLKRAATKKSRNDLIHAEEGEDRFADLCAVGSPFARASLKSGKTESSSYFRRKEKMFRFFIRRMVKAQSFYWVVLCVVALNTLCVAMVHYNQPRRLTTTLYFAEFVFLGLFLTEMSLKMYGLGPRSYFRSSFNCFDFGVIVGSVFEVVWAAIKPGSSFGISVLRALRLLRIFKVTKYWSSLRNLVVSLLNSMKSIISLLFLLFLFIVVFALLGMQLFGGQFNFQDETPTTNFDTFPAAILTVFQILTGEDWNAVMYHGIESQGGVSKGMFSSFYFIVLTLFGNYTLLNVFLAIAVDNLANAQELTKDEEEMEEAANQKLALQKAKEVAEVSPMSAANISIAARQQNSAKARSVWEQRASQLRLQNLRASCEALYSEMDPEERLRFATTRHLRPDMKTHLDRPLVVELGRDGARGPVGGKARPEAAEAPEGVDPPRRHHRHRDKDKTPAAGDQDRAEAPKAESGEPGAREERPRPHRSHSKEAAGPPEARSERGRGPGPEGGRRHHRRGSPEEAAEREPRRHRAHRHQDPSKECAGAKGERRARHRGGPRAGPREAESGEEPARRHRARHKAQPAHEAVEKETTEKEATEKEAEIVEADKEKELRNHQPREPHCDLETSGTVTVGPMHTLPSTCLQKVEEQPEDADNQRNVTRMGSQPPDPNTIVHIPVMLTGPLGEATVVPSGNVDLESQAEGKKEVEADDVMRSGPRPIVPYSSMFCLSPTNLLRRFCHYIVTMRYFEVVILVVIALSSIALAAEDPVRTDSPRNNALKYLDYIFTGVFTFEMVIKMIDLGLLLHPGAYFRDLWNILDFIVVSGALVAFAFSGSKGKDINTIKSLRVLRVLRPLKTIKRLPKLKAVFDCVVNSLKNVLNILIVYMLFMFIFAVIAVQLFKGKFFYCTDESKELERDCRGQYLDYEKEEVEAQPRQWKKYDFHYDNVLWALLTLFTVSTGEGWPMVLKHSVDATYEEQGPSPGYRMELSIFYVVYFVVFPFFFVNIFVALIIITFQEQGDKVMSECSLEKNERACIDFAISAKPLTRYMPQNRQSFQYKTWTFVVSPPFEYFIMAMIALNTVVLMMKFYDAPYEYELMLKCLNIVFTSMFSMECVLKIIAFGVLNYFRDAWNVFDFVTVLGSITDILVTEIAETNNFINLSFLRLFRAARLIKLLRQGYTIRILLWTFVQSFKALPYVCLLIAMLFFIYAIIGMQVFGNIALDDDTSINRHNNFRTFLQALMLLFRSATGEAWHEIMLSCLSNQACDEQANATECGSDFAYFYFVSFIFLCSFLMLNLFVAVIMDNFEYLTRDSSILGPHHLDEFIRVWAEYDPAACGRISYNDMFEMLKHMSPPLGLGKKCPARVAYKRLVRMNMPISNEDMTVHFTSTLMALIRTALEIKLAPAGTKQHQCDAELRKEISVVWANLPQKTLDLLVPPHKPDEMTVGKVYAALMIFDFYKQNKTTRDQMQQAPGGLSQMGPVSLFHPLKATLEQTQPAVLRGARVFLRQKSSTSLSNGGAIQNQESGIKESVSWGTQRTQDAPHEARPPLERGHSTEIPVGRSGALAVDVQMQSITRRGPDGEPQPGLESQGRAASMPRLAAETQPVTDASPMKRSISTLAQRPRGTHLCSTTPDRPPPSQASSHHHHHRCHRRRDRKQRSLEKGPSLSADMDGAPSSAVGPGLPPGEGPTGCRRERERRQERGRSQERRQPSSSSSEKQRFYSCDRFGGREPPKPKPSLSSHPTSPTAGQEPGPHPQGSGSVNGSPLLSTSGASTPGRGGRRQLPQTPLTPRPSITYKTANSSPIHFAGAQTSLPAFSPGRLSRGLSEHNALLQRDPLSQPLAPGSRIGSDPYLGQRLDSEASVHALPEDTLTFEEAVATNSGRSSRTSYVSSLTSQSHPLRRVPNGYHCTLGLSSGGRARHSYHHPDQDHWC
T1 sequence (Q02410 whole entry): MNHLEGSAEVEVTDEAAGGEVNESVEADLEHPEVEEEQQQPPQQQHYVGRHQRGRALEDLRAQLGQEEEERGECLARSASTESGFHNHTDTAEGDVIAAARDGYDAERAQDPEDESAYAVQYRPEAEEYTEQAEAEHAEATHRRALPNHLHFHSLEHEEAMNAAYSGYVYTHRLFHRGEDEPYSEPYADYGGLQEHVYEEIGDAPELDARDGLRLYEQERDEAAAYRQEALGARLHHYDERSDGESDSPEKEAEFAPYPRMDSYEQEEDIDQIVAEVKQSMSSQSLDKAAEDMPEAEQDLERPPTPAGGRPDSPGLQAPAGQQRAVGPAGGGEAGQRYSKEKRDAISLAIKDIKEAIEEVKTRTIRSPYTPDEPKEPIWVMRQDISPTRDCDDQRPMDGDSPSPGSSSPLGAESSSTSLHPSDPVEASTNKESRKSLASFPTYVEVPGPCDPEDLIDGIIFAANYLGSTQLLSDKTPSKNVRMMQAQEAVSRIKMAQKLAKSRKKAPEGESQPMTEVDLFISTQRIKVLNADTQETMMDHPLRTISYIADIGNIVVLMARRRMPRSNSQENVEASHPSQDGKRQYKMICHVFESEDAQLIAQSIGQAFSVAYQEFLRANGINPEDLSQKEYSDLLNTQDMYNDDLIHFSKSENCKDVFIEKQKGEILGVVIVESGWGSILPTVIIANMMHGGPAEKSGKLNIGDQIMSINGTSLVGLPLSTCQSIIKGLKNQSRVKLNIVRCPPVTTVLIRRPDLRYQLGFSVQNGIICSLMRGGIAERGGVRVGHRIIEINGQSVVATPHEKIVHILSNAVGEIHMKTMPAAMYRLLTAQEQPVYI

Streptokinase A = molecular target: T2, Streptokinase A (Streptococcus pyogenes serotype M1, UniProt P10520); experiment: S. pyogenes streptokinase expression inhibitors, potency, dose response, plasminogen activation absorbance, OD405 (AID 1914); format: functional, Streptococcus pyogenes M1 GAS;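 also: secreted streptokinase activity via plasminogen activation per viability signal from cell pellet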
T2 sequence (P10520 whole entry): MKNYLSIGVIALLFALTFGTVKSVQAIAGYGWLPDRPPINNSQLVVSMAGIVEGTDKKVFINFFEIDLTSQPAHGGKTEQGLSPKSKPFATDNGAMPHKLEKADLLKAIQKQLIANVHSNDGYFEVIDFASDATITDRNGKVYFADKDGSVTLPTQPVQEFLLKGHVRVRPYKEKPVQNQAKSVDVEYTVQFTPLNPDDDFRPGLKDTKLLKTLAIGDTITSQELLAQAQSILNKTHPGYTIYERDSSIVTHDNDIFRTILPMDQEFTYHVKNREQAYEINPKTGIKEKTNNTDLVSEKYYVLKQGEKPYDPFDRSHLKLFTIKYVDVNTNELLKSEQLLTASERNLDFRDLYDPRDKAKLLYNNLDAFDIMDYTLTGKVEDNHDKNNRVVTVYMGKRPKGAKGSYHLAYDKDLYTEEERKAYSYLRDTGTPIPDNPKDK

[5] = molecular target: Induced myeloid leukemia cell differentiation protein Mcl-1 (Homo sapiens, UniProt Q07820); format: functional
[6] = molecular target: T1, Voltage-gated N-type calcium channel alpha-1B subunit/Amyloid beta A4 precursor protein-binding family A member 1; format: protein assay; remark: listed apart in the source
Streptococcus = experiment: Group A Streptococcus viability loss, dose response, counter-screen for streptokinase expression inhibitor project, luminescence, BacTiterGlo (AID 1915); format: functional, organism-based;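 also: potency for reduction of bacterial viability or growth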
[7] = molecular target: T3, Alkaline phosphatase, tissue-nonspecific isozyme (Homo sapiens, UniProt P05186)
T3 sequence (P05186 whole entry): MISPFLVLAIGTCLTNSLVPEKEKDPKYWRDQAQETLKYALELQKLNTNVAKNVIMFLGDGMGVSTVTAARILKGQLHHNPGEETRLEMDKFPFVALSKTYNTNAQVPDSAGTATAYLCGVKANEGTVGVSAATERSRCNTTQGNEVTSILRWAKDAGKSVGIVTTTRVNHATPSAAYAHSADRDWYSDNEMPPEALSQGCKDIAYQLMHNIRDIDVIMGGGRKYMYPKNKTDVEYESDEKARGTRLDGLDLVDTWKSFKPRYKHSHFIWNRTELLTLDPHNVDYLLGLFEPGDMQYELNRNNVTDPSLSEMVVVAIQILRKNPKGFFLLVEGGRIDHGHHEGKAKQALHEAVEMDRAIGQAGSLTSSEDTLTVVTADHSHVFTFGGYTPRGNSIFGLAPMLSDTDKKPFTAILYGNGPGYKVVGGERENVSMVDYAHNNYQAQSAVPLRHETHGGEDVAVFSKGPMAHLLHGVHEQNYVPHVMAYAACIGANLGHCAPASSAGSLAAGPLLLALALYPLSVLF

[8] = molecular target: Glyceraldehyde-3-phosphate dehydrogenase (Homo sapiens, UniProt P04406)
Sequence of Glyceraldehyde-3-phosphate dehydrogenase (P04406 whole entry): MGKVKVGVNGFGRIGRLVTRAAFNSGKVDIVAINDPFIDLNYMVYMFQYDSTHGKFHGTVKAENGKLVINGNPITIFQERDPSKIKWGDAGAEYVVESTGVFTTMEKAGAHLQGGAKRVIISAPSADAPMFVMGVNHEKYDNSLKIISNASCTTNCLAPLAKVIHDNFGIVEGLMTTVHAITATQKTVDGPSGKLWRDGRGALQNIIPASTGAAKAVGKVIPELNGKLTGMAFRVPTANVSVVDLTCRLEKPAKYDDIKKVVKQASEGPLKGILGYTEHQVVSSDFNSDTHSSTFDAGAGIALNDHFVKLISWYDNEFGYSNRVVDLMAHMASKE

[9] = molecular target: T4, High affinity choline transporter 1 (Homo sapiens, UniProt Q9GZV3); experiment: CHT inhibitors, dose response, cell-based, 5-point CRC, membrane potential dye (AID 504840); format: functional
T4 sequence (Q9GZV3 whole entry): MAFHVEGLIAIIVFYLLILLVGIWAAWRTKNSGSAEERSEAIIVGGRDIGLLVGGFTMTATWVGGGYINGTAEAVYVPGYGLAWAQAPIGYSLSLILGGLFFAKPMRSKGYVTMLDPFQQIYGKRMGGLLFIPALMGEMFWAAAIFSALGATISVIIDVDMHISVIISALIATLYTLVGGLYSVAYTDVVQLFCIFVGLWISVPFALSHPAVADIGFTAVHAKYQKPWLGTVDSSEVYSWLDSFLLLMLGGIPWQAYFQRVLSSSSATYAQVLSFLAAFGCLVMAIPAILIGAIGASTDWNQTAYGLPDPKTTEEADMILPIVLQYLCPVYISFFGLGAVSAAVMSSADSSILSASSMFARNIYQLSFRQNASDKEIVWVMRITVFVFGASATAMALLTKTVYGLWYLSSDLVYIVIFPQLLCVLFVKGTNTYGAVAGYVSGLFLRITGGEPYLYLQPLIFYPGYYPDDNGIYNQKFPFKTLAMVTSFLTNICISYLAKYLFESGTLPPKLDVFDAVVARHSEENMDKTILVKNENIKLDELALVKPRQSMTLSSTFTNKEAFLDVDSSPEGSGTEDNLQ

[10] = molecular target: T4, High affinity choline transporter 1; experiment: CHT inhibitors, dose response, cell-based, 10-point CRC, membrane potential dye (AID 588401); format: functional;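 also: membrane potential dye fluorescence of choline-evoked depolarization via CHT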
[11] = molecular target: Melanin-concentrating hormone receptor 1 (Homo sapiens, UniProt Q99705); experiment: Late-stage fluorescence-based counterscreen for antagonists of the G-protein coupled receptor 7 (GPR7): cell-based dose response assay to identify antagonists of the melanin-concentrating hormone receptor 1 (MCHR1). [Related pubchem assays (depositor defined):AID1861, AID1880, AID1952, AID2148, AID2251, AID2257, AID485339]; format: functional;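 also: stimulated with 30 nM MCH peptide agonist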
Sequence of Melanin-concentrating hormone receptor 1 (Q99705 whole entry): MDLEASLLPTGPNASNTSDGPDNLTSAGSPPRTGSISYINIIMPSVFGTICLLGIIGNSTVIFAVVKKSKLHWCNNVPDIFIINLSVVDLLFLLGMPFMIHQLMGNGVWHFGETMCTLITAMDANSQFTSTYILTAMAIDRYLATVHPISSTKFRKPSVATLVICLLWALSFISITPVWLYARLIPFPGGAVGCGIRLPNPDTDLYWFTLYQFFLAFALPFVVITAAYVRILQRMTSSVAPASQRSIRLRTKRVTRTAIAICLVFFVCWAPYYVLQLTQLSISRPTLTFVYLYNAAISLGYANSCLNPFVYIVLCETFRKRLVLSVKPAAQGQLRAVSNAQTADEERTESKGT

[12] = A Cell Based Secondary Assay To Explore Cytotoxicity of Compounds that Sensitize Mycobacterium Tuberculosis to Beta-Lactam Antibiotics.; format: functional
Beta-galactosidase = Beta-galactosidase (Escherichia coli, UniProt Q8VNN2); experiment: beta-galactosidase enzyme inhibitors and activators, dose response, artefact control for CCR6 antagonist project, biochemical, E. coli enzyme, set 3 (AID 504712); format: functional
[13] = molecular target: T5, Polyadenylate-binding protein 1 (Homo sapiens, UniProt P11940); experiment: PABP1 MLLE–PAM2 binding inhibitor potency, dose response, biochemical, fluorescence polarization, FITC-PAM2 peptide (AID 602259); format: functional; details: read-out: IC50_Mean
T5 sequence (P11940 whole entry): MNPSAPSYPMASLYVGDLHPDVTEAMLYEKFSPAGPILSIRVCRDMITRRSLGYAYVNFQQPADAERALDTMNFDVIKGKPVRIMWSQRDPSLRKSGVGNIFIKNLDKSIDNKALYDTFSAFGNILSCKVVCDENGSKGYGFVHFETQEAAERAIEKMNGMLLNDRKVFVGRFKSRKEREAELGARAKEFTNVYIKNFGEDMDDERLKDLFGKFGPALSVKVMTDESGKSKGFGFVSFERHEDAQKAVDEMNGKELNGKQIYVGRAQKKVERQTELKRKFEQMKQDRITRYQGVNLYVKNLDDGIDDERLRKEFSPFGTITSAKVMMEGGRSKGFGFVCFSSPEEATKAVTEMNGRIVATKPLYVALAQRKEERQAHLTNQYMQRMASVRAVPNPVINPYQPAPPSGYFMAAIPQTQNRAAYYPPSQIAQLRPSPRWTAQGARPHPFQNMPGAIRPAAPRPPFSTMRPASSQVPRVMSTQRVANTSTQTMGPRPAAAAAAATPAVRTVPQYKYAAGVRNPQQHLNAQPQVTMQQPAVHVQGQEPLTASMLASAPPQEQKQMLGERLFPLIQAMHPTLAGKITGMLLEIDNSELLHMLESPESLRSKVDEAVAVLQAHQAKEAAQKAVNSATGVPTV

[14] = molecular target: C-C chemokine receptor type 6 (Homo sapiens, UniProt P51684); experiment: CCR6 receptor antagonists, dose response, cell-based, luminescent beta-arrestin readout (AID 504728); format: functional
[15] = molecular target: T5, Polyadenylate-binding protein 1; experiment: PABP1 MLLE–PAM2 interaction inhibitors, dose response, miRNA deadenylation inhibitor project, biochemical, fluorescence polarization, Cy5-PAM2 peptide, secondary (AID 602260); format: functional; details: read-out: IC50_Mean

Sequence of Cytochrome P450 2D6 (P10635 whole entry): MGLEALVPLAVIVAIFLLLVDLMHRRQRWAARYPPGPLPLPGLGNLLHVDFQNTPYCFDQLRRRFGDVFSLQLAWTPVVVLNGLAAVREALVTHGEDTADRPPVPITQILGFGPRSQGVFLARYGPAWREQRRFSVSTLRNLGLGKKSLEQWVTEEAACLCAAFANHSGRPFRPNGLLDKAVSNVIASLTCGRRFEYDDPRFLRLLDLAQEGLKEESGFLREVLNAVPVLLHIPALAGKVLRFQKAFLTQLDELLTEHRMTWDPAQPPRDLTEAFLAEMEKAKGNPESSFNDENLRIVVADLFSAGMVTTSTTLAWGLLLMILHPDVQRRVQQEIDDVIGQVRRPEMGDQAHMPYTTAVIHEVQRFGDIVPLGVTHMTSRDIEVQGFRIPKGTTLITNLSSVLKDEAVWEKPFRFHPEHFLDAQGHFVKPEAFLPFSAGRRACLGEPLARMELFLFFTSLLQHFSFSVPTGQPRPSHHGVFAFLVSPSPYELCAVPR

O=c1cccc2n1C[C@@H]1C[C@H]2CN2CCCC[C@H]12
AC50 (Cytochrome P450 2D6): 25.1 µM (inconclusive)

COc1ccc(NC(=O)CSc2nc3ccccc3c(=O)n2-c2ccc(F)cc2)cc1
IC50 [1]: > 66.6 µM (active)

COc1ccc(/N=C2\S/C(=C\c3ccc(OC(C)C(=O)O)c(OC)c3)C(=O)N2CCc2c[nH]c3ccccc23)cc1 (stereo not given)
IC50 [2]: > 50 µM (active) | EC50 [3]: 1.86 µM (active) | IC50 [4]: 15.8 µM (active) | EC50 (Streptokinase A): > 50 µM (not active) | IC50 [5]: 7.55 µM (active) | IC50 [6]: > 50 µM (inactive) | EC50 (Streptococcus): 4.41 µM (active)

OCCN(CCO)Cc1nc(O)c2c(n1)-c1ccccc1CC21CCCCC1
EC50 [7]: 76.4 µM (not active)

CCOc1cc(C)c(Cl)cc1S(=O)(=O)Nc1cccnc1
IC50 [8]: > 100 µM (not active)

CS(=O)(=O)C1=NSC2=NC(=O)/C(=C\c3ccc(OS(=O)(=O)c4ccccc4)cc3)C(=N)N21
IC50 [9]: 4.17 µM (active) | IC50 [2]: 39.3 µM (active) | IC50 [10]: 5.01 µM (active)

COCCNC(=O)c1cc(-c2ccc(Cl)cc2Cl)n[nH]1
IC50 [8]: > 10 µM (inconclusive)

COc1ccc(Oc2c(Cl)cnn(-c3cccc(Cl)c3)c2=O)cc1
IC50 [11]: 10.5 µM (inactive)

CCN1C(=O)C(=CNNC(=O)c2ccccc2)C(=O)N(CC)C1=S
CC50 [12]: > 40 µM (active)

CN1CCc2cc3c(cc2[C@@H]1[C@H]1OC(=O)c2c1ccc1c2OCO1)OCO3
AC50 (Cytochrome P450 2D6): 10 µM (inconclusive)

COc1ccc(S(=O)(=O)N(C(=O)c2ccncc2)c2ccc3oc4c(c3c2)CCCC4)cc1
CC50 [12]: > 40 µM (active)

CCCCC(=O)NC(=S)Nc1ccccc1C(=O)Nc1ccccc1
IC50 (Beta-galactosidase): > 66.6 µM (inactive) | IC50 [13]: > 66 µM (inactive) | IC50 [14]: > 66.6 µM (inactive) | IC50 [15]: > 66 µM (inactive)

COc1ccc(Oc2c(Cl)cnn(-c3cccc(C)c3)c2=O)cc1
IC50 [11]: 5.4 µM (active)

COc1ccc(-n2c(=O)c3ccccc3n(CC(=O)NC3CCCCC3)c2=O)cc1OC
EC50 [7]: > 100 µM (not active)
